Data: US11065269B1, “Method of using astaxanthin for the treatment of diseases, and more particularly, the treatment of cancer” (priority 2018, dated 2021)

How the values were obtained:
[1] = cited from earlier work
[2] = increasing astaxanthin levels in the diet (experiments conducted with the invention); assay type: in vivo
Procedure: In experiments conducted with the present invention, it is been shown that increasing astaxanthin levels in the diet can be used as a pre-cancer, cancer and anti-inflammatory prophylactic at levels up to 400 mg per day.

[3] = relative to betacarotene; cited from earlier work
[4] = oral; cited from earlier work

CC1=C(/C=C/C(C)=C/C=C/C(C)=C/C=C/C=C(C)/C=C/C=C(C)/C=C/C2=C(C)C(=O)[C@@H](O)CC2(C)C)C(C)(C)C[C@H](O)C1=O [astaxanthin]
singlet oxygen quenching, times stronger than CoQ10 ([1]; relative to CoQ10): 800 times | singlet oxygen quenching, times stronger than vitamin C ([1]; relative to vitamin C): 6000 times | singlet oxygen quenching, times stronger than vitamin E ([1]; relative to vitamin E): 550 times | side effects ([2]; dietary levels up to 400 mg per day): No discernible side effects | side effects or skin color changes ([2]; treatment of greater than 50 mg per day): No side effects or skin color changes were observed | feces colour ([2]; up to 400 mg per day, from unabsorbed astaxanthin): some decolorization of feces | anti-inflammatory effect and pain reduction associated with arthritis ([2]; within four weeks of treatment of greater than 50 mg per day): Anti-inflammatory and pain reduction associated with arthritis were noted | times more reactive as an antioxidant than betacarotene [3]: 400 times | toxic side effects [4]: No toxic side effects have been observed
